From patent US11999715B2, “ASK1 inhibiting agents” (BIOGEN MA INC., priority 2018, dated 2024) come the findings set out here.

One test has as its target T1, ASK1/MAP3K5 (Homo sapiens, UniProt Q99683).
T1 sequence (Q99683 1-1374): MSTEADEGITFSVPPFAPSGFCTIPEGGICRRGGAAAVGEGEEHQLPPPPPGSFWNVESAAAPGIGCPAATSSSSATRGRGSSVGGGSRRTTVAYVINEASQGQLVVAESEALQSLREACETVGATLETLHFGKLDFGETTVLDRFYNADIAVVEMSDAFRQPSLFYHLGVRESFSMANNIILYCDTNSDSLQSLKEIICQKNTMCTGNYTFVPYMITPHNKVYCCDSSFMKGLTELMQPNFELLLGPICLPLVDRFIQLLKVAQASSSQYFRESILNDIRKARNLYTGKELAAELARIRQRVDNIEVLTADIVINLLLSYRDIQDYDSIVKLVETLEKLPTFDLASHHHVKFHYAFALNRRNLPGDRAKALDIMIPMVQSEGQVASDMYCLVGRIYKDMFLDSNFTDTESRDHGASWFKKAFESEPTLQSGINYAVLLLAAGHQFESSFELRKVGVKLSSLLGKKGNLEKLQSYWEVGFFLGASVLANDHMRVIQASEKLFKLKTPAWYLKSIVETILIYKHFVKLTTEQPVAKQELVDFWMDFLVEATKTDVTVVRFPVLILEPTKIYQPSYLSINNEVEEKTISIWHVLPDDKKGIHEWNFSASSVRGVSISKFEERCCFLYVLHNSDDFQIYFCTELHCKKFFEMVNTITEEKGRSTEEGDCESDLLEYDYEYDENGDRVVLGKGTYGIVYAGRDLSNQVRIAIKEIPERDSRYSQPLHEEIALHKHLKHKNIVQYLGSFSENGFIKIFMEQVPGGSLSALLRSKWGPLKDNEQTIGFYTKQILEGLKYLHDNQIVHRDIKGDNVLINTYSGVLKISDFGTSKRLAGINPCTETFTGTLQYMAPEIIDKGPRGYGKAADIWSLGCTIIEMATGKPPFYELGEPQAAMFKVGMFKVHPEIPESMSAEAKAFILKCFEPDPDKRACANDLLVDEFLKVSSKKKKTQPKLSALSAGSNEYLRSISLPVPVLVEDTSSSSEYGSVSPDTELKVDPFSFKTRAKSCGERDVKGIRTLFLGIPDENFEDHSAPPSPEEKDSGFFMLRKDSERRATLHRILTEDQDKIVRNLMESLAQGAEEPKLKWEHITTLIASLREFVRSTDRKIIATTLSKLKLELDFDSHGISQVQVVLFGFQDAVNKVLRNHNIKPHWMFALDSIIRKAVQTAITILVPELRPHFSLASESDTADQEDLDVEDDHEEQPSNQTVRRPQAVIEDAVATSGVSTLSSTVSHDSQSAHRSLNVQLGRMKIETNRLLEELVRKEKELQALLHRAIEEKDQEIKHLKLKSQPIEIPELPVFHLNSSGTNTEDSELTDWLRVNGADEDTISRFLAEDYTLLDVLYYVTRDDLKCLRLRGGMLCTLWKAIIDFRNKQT
Briefly: ASK1/MAP3K5 kinase assay by Reaction Biology Corp. (headed ASK1 TR-FRET Assay). Format: biochemical. To be noted: 20 μM myelin basic protein, 10 μM ATP, class symbols. The procedure:
Example 111: Brief Description of ASK1 TR-FRET Assay The protein kinase inhibitory activity of the compounds described herein were tested using the ASK1/MAP3K5 assay by Reaction Biology Corp. (Malvern, PA). The assay procedure follows (and is also available on the Reaction Biology Corp. website). Base Reaction Buffer: 20 mM Hepes (pH 7.5), 10 mM MgCl2, 1 mM EGTA, 0.02% Brij35, 0.02 mg/mL BSA, 0.1 mM Na3VO4, 2 mM DTT, 1% DMSO; Substrate: 20 μM of myelin basic protein (MBP) and 10 μM ATP; Protein kinase: ASK1/MAP3K5. Reaction Procedure: • 1. Prepare indicated substrate in freshly prepared Base Reaction Buffer. • 2. Deliver any required cofactors to the substrate solution. • 3. Deliver indicated kinase into the substrate solution and gently mix. • 4. Deliver compounds in DMSO into the kinase reaction mixture by Acoustic; technology (Echo550; nanoliter range), incubate for 20 minutes at room temperature. • 5. Deliver ^33P-ATP (specific activity 10 μCi/μL) into the reaction mixture to initiate the reaction. • 6. Incubate kinase reaction for 2 hours at room temperature. • 7. Reactions are spotted onto P81 ion exchange paper. • 8. Detect kinase activity by filter-binding method.

For test [1], the target named is T2, ASK1 T838 auto phosphorylation (Homo sapiens, UniProt Q99683).
T2 sequence (Q99683 1-1374): T1 sequence (Q99683 1-1374)
Briefly: ASK1 (AUTO PHOS T838) assay, MSD format, in HEK-293T cells transfected with ASK1-V5. Format: cell-based. To be noted: ASK1 T838 auto phosphorylation in HEK-293T cells, 1 hr compound incubation; class symbols. The procedure:
Example 112: Brief Description of ASK1(AUTO PHOS T838) Assay ASK1 T838 auto phosphorylation was measured in HEK-293T cells using MSD assay format. HEK 293T cells were seeded in 15 cm plates at a density of 18 million cells and 20 mL DMEM with 10% FBS, Pen/Strep media. The plates were incubated at 37° C. overnight. Media on plates was changed to OPTI-MEM, serum free media and cells were transfected with 9 μg of ASK1-V5 tagged full length plasmid using Lipofectamine 2000 (Invitrogen) and the plates were incubated at 37° C. overnight. Cells were trypsinized, counted on Nexcellometer and plated into 96 well tissue culture plates with 100,000 cells/well and 200 μL media. Cells were incubated for 4 hr at 37° C. then ASK1 compounds were added using a HP 300e. Compounds were tested at 20 μM with 3 fold, 10 point dilution points then incubated for 1 hr at 37° C. A lysis buffer (Cell Signaling) was prepared with protease and phosphatase inhibitor and maintained at 4° C. until use. Media from cells was discarded and 120 μL of cold lysis buffer was added to the cells, the plate was shaken 4° C. for 1 hr. Lysate was mixed using Apricot liquid handler; aspirating up and down 16 times at high speed using 50 μL volume. […] Plates were then incubated on a plate shaker overnight at 4° C. Plates were washed 3× with MSD wash buffer and 50 μL of rabbit anti-pASK1 T838 antibody was added to the wells and incubated for 2 hr at room temperature on a plate shaker. Plates were then washed and 50 μL of goat anti-rabbit sulfa-tag (1:500 dilution) was added to wells, and incubated for 1 hr at room temperature on a plate shaker. […] Plates were immediately read on a MSD Instrument Reader where chemoluminescence signal was measured. Data was analyzed using Graph Pad or Genedata, the data was normalized and plotted, % activity versus log of compound concentration. The IC50 values were obtained from a 4 parameter fit. The compounds described herein were tested for in the above cell-based assay.

SMILES strings stand for the structures.

As a reminder, the IC50 is the point on the concentration scale where inhibition reaches its midpoint. A higher IC50 goes with lower potency. With `COc1nn(C)cc1C(=O)Nc1cccc(-c2nncn2C(C)CO)n1` (racemic) [Example 35, rac-N-(6-(4-(1-Hydroxypropan-2-yl)-4H-1,2,4-triazol-3-yl)pyridin-2-yl)-3-methoxy-1-methyl-1H-pyrazole-4-carboxamide], the IC50 against ASK1/MAP3K5 is not above 100 nM; in test [1], 1000 to 10000 nM.

As to `COc1nn(C)cc1C(=O)Nc1cccc(-c2nncn2[C@@H](C)C(F)F)n1` (single isomer, unassigned) [Example 27], the values for the IC50 (against ASK1/MAP3K5; in test [1]) were not above 100 nM and not above 1000 nM, respectively.

For the compound `COc1nn(C)cc1C(=O)Nc1cccc(-c2nncn2[C@H](C)C(F)F)n1` (single isomer, unassigned) [Example 28], the IC50 was not above 100 nM against ASK1/MAP3K5 and not above 1000 nM in test [1].

In the case of `COc1nn(C)cc1C(=O)Nc1cccc(-c2nncn2[C@H]2CCC2(F)F)n1` (single isomer, unassigned) [Example 31], the IC50 was not above 100 nM at ASK1/MAP3K5 and not above 1000 nM in test [1].

Regarding `COc1nn(C)cc1C(=O)Nc1cccc(-c2nncn2[C@@H]2CCC2(F)F)n1` (single isomer, unassigned) [Example 32], the concentration for half-maximal inhibition (IC50) at ASK1/MAP3K5 was 100 to 1000 nM; in test [1], not above 1000 nM.

For `COC[C@H](C)n1cnnc1-c1cccc(NC(=O)c2cn(C)nc2OC)n1` (single isomer, unassigned) [Example 33], the IC50 is not above 100 nM on ASK1/MAP3K5 and not above 1000 nM in test [1].

`COC[C@@H](C)n1cnnc1-c1cccc(NC(=O)c2cn(C)nc2OC)n1` (single isomer, unassigned) [Example 34]: the IC50 on ASK1/MAP3K5 was 100 to 1000 nM; in test [1], not above 1000 nM.

On to `COc1nn(C)cc1C(=O)Nc1cccc(-c2nncn2[C@H](C)CO)n1` (single isomer, unassigned) [Example 36], for which the 50% inhibitory concentration (IC50) against ASK1/MAP3K5 was not above 100 nM; in test [1] it was not above 1000 nM.

With `COc1nn(C)cc1C(=O)Nc1cccc(-c2nncn2[C@@H](C)CO)n1` (single isomer, unassigned) [Example 37], the IC50 is not above 100 nM at ASK1/MAP3K5 and 1000 to 10000 nM in test [1].

Turning to `COc1nn(C)cc1C(=O)Nc1cccc(-c2nncn2[C@H]2CCN(C(=O)OC(C)(C)C)C2)n1` (single isomer, unassigned) [Example 40], the IC50 lay within 100 to 1000 nM against ASK1/MAP3K5 and 1000 to 10000 nM in test [1].

Consider `COc1nn(C)cc1C(=O)Nc1cccc(-c2nncn2[C@@H]2CCOC2)n1` (single isomer, unassigned) [Example 109], for which the concentration for half-maximal inhibition (IC50) is not above 100 nM on ASK1/MAP3K5 and not above 1000 nM in test [1].

Turning to `COc1nn(C)cc1C(=O)Nc1cccc(-c2nncn2[C@H]2CCOC2)n1` (single isomer, unassigned) [Example 110], the IC50 was not above 100 nM against ASK1/MAP3K5 and not above 1000 nM in test [1].

In the case of `COc1nn(C)cc1C(=O)Nc1cccc(-c2nncn2C(C)C(F)(F)F)n1` (stereo not shown) [Example 10, 3-Methoxy-1-methyl-N-(6-(4-(1,1,1-trifluoropropan-2-yl)-4H-1,2,4-triazol-3-yl)pyridin-2-yl)-1H-pyrazole-4-carboxamide], the IC50 in test [1] is not above 1000 nM.

As to `CCCn1cc(C(=O)Nc2cccc(-c3nncn3C(C)C)n2)c(OC)n1` [Example 58, N-(6-(4-Isopropyl-4H-1,2,4-triazol-3-yl)pyridin-2-yl)-3-methoxy-1-propyl-1H-pyrazole-4-carboxamide], the IC50 in test [1] is not above 1000 nM.

In the case of `COc1nn(-c2ccccc2)cc1C(=O)Nc1cccc(-c2nncn2C(C)C)n1` [Example 60, N-(6-(4-Isopropyl-4H-1,2,4-triazol-3-yl)pyridin-2-yl)-3-methoxy-1-phenyl-1H-pyrazole-4-carboxamide], the IC50 in test [1] is not above 1000 nM.

For the compound `COc1nn(CC2CC2)cc1C(=O)Nc1cccc(-c2cncn2C(C)C)n1` [Example 91, 1-(Cyclopropylmethyl)-N-(6-(1-isopropyl-1H-imidazol-5-yl)pyridin-2-yl)-3-methoxy-1H-pyrazole-4-carboxamide], in test [1], the IC50 is not above 1000 nM.
